“And” between values parts separate entries of the source, which are not always exact repeats. Equal entries are not always repeated. Toxic doses and inconclusive results are not listed. Cut-off read from the data, not from the text of the source: active = T/C of 150% or more; inactive = T/C below 125%.
Tested on: L1210 leukemia ip in BDF1 mice, survival T/C
Experiment: NCI In Vivo Anticancer Drug Screen. Data for tumor model L1210 Leukemia (intraperitoneal) in B6D2F1 (BDF1) mice
Conditions: endpoint: mean survival time, higher = longer survival
Summary of the method: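 Tumor was transplanted into mice, which were then dosed with test compound or vehicle alone. Survival was recorded for each group, and the treated figure was expressed relative to the control figure.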

[1] = dose: 100.0 mg/kg/injection, schedule: Q01DX001 (ip), vehicle: saline
[2] = dose: 100.0 mg/kg/injection, schedule: Q04DX003 (ip), vehicle: acetone
[3] = dose: 200.0 mg/kg/injection, schedule: Q01DX001 (ip), vehicle: saline
[4] = dose: 100.0 mg/kg/injection, schedule: Q01DX009 (ip), vehicle: saline
[5] = dose: 200.0 mg/kg/injection, schedule: Q01DX009 (ip), vehicle: saline
[6] = dose: 400.0 mg/kg/injection, schedule: Q01DX001 (ip), vehicle: saline
[7] = dose: 6.25 mg/kg/injection, schedule: Q04DX003 (ip), vehicle: saline with Tween-80
[8] = dose: 12.5 mg/kg/injection, schedule: Q04DX003 (ip), vehicle: saline with Tween-80
[9] = dose: 100.0 mg/kg/injection, schedule: Q04DX003 (ip), vehicle: Klucel (hydroxypropylcellulose) (HPC)
[10] = dose: 200.0 mg/kg/injection, schedule: Q04DX003 (ip), vehicle: Klucel (hydroxypropylcellulose) (HPC)
[11] = dose: 400.0 mg/kg/injection, schedule: Q04DX003 (ip), vehicle: Klucel (hydroxypropylcellulose) (HPC)
[12] = dose: 100.0 mg/kg/injection, schedule: Q04DX003 (ip), vehicle: saline with Tween-80
[13] = dose: 200.0 mg/kg/injection, schedule: Q04DX003 (ip), vehicle: saline with Tween-80
[14] = dose: 400.0 mg/kg/injection, schedule: Q04DX002 (ip), vehicle: saline with Tween-80
[15] = dose: 400.0 mg/kg/injection, schedule: Q04DX003 (ip), vehicle: saline with Tween-80
[16] = dose: 100.0 mg/kg/injection, schedule: Q01DX009 (ip), vehicle: saline with Tween-80
[17] = dose: 200.0 mg/kg/injection, schedule: Q01DX009 (ip), vehicle: saline with Tween-80
[18] = dose: 400.0 mg/kg/injection, schedule: Q01DX009 (ip), vehicle: saline with Tween-80

Measured: T/C

COc1ccc([I+]c2ccc(OC)cc2)cc1
inactive: dose: 0.63 mg/kg/injection, schedule: Q01DX009 (ip), vehicle: water 100 % of control | dose: 1.25 mg/kg/injection, schedule: Q01DX009 (ip), vehicle: water 101 % of control | dose: 2.5 mg/kg/injection, schedule: Q01DX009 (ip), vehicle: water 105 % of control | dose: 2.5 mg/kg/injection, schedule: Q04DX003 (ip), vehicle: water 103 % of control | dose: 3.12 mg/kg/injection, schedule: Q01DX009 (ip), vehicle: saline 103 % of control | dose: 5.0 mg/kg/injection, schedule: Q04DX003 (ip), vehicle: water 108 % of control | dose: 6.25 mg/kg/injection, schedule: Q01DX009 (ip), vehicle: saline 107 % of control | dose: 10.0 mg/kg/injection, schedule: Q04DX003 (ip), vehicle: water 101 % of control | dose: 12.5 mg/kg/injection, schedule: Q01DX009 (ip), vehicle: saline 91 % of control | dose: 50.0 mg/kg/injection, schedule: Q04DX003 (ip), vehicle: acetone 103 % of control | [1] 111 % of control | [2] 100 % of control | [3] 109 % of control

CCN(CC)CCCNC(C)=O
inactive: [4] 96 % of control | [5] 98 % of control

CN(C)c1ccc(/C=C\c2ccnc3ccccc23)cc1
inactive: dose: 10.0 mg/kg/injection, schedule: Q01DX Z (ip), vehicle: methylcellulose (MC) 98 % of control | dose: 18.0 mg/kg/injection, schedule: Q01DX010 (ip), vehicle: saline 93 % of control and 102 % of control | dose: 27.0 mg/kg/injection, schedule: Q01DX010 (ip), vehicle: saline 95 % of control and 102 % of control | dose: 40.0 mg/kg/injection, schedule: Q01DX010 (ip), vehicle: saline 101 % of control and 91 % of control | dose: 50.0 mg/kg/injection, schedule: Q01DX001 (ip), vehicle: carboxymethylcellulose (CMC) 106 % of control | dose: 60.0 mg/kg/injection, schedule: Q01DX010 (ip), vehicle: saline 86 % of control and 90 % of control | dose: 100.0 mg/kg/injection, schedule: Q01DX001 (ip), vehicle: carboxymethylcellulose (CMC) 97 % of control | dose: 200.0 mg/kg/injection, schedule: Q01DX001 (ip), vehicle: carboxymethylcellulose (CMC) 89 % of control | dose: 400.0 mg/kg/injection, schedule: Q01DX001 (ip), vehicle: carboxymethylcellulose (CMC) 101 % of control

CC(N)C(=O)NC(CC(=O)O)C(=O)O (stereo not drawn)
inactive: dose: 25.0 mg/kg/injection, schedule: Q04DX002 (ip), vehicle: saline 98 % of control | dose: 50.0 mg/kg/injection, schedule: Q04DX002 (ip), vehicle: saline 94 % of control | dose: 100.0 mg/kg/injection, schedule: Q04DX002 (ip), vehicle: saline 94 % of control

CCOC(=O)Nc1nc(Cl)c(Cl)nc1Cl
inactive: dose: 25.0 mg/kg/injection, schedule: Q01DX009 (ip), vehicle: water 93 % of control | dose: 50.0 mg/kg/injection, schedule: Q01DX009 (ip), vehicle: water 102 % of control | dose: 100.0 mg/kg/injection, schedule: Q01DX009 (ip), vehicle: water 98 % of control | dose: 200.0 mg/kg/injection, schedule: Q01DX009 (ip), vehicle: water 91 % of control | dose: 400.0 mg/kg/injection, schedule: Q01DX009 (ip), vehicle: water 96 % of control

CC(C)(C)C(=O)C(O)C(C)(C)C (stereo not drawn)
inactive: [1] 95 % of control | [3] 97 % of control | [6] 93 % of control

O=C1NC2CCC(NC(=O)N1c1ccccc1)C1=C2C1
inactive: dose: 3.13 mg/kg/injection, schedule: Q01DX009 (ip), vehicle: saline with Tween-80 94 % of control | dose: 6.25 mg/kg/injection, schedule: Q01DX009 (ip), vehicle: saline with Tween-80 90 % of control | [7] 106 % of control | dose: 12.5 mg/kg/injection, schedule: Q01DX009 (ip), vehicle: saline with Tween-80 97 % of control | [8] 94 % of control

c1ccc(C2=NCN=C2c2ccccc2)cc1
inactive: [9] 99 % of control | [10] 101 % of control | [11] 92 % of control

CCOc1cccc(Cc2c[nH]c(=O)n(C)c2=O)c1
inactive: [9] 93 % of control | [10] 97 % of control | [11] 98 % of control

CC1(C)/C(=C\C(=O)O)C2CCC1C2 (stereo not drawn)
inactive: [1] 103 % of control | [4] 91 % of control | [2] 106 % of control | [3] 97 % of control | [5] 90 % of control | dose: 200.0 mg/kg/injection, schedule: Q04DX003 (ip), vehicle: acetone 93 % of control | [6] 105 % of control | dose: 400.0 mg/kg/injection, schedule: Q01DX009 (ip), vehicle: saline 98 % of control | dose: 400.0 mg/kg/injection, schedule: Q04DX003 (ip), vehicle: acetone 89 % of control

CC(=O)C(C(N)=O)C(c1ccc2c(c1)OCO2)C(C(C)=O)C(=O)NCc1ccccc1 (stereo not drawn)
inactive: dose: 25.6 mg/kg/injection, schedule: Q04DX002 (ip), vehicle: saline with Tween-80 98 % of control | dose: 64.0 mg/kg/injection, schedule: Q04DX002 (ip), vehicle: saline with Tween-80 95 % of control | [12] 87 % of control | dose: 160.0 mg/kg/injection, schedule: Q04DX002 (ip), vehicle: saline with Tween-80 91 % of control | [13] 90 % of control | [14] 98 % of control | [15] 91 % of control

O=C(Nc1ccccc1C(F)(F)F)c1ccc(Cl)cc1Cl
inactive: [16] 91 % of control | [12] 94 % of control | [17] 96 % of control | [13] 92 % of control | [18] 89 % of control | [15] 95 % of control

O=c1[nH]cc(NCc2ccco2)c(=O)[nH]1
inactive: [9] 101 % of control | [10] 88 % of control | [11] 93 % of control

O=C1COC(=O)c2ccccc2O1
inactive: [12] 101 % of control | [13] 97 % of control | [15] 93 % of control

O=C(NC(=S)Nc1ccc(Br)cc1)c1ccc(Cl)cc1Cl
inactive: dose: 100.0 mg/kg/injection, schedule: Q01DX001 (ip), vehicle: saline with Tween-80 92 % of control | [16] 97 % of control and 102 % of control | dose: 100.0 mg/kg/injection, schedule: Q04DX002 (ip), vehicle: saline with Tween-80 95 % of control and 90 % of control | [12] 95 % of control | dose: 200.0 mg/kg/injection, schedule: Q01DX001 (ip), vehicle: saline with Tween-80 90 % of control | [17] 97 % of control and 88 % of control | dose: 200.0 mg/kg/injection, schedule: Q04DX002 (ip), vehicle: saline with Tween-80 93 % of control and 101 % of control | [13] 98 % of control | dose: 400.0 mg/kg/injection, schedule: Q01DX001 (ip), vehicle: saline with Tween-80 97 % of control | [18] 97 % of control and 90 % of control | [14] 90 % of control and 92 % of control | [15] 93 % of control

[Cl][Sn]([Cl])([c]1ccccc1)[c]1ccccc1.c1ccc(-c2nnc(-c3ccccn3)nc2-c2ccccc2)cc1
inactive: dose: 3.12 mg/kg/injection, schedule: Q04DX003 (ip), vehicle: saline with Tween-80 96 % of control | [7] 104 % of control | dose: 6.25 mg/kg/injection, schedule: Q04DX003 (ip), vehicle: saline 93 % of control | [8] 112 % of control | dose: 12.5 mg/kg/injection, schedule: Q04DX003 (ip), vehicle: saline 98 % of control | dose: 25.0 mg/kg/injection, schedule: Q04DX003 (ip), vehicle: saline 120 % of control

COc1ccc(/C=C(\C#N)c2ccc(OC)cc2)cc1
inactive: dose: 100.0 mg/kg/injection, schedule: Q01DX009 (ip), vehicle: Klucel (hydroxypropylcellulose) (HPC) 96 % of control | [9] 98 % of control | dose: 200.0 mg/kg/injection, schedule: Q01DX009 (ip), vehicle: Klucel (hydroxypropylcellulose) (HPC) 101 % of control | [10] 91 % of control | dose: 400.0 mg/kg/injection, schedule: Q01DX009 (ip), vehicle: Klucel (hydroxypropylcellulose) (HPC) 96 % of control | [11] 93 % of control
